pIC50: −log10 of the molar value.
Experiments:
[1] = molecular target: T1, human sodium channels Nav 1.7 (Homo sapiens, UniProt Q15858); experiment: Automated whole-cell voltage-clamp (ScreenPatch 384P) sodium current block, Nav 1.7; assay type: cell-based; details: CHO cells stably expressing human Nav 1.7; inactivation step -40 mV 8 s, test step 0 mV (TP1A); eight concentrations; exposure at least five minutes; room temperature; read-out: Nav1.7 IC50
T1 construct: expressed in transfected cells
T1 sequence (Q15858 whole entry): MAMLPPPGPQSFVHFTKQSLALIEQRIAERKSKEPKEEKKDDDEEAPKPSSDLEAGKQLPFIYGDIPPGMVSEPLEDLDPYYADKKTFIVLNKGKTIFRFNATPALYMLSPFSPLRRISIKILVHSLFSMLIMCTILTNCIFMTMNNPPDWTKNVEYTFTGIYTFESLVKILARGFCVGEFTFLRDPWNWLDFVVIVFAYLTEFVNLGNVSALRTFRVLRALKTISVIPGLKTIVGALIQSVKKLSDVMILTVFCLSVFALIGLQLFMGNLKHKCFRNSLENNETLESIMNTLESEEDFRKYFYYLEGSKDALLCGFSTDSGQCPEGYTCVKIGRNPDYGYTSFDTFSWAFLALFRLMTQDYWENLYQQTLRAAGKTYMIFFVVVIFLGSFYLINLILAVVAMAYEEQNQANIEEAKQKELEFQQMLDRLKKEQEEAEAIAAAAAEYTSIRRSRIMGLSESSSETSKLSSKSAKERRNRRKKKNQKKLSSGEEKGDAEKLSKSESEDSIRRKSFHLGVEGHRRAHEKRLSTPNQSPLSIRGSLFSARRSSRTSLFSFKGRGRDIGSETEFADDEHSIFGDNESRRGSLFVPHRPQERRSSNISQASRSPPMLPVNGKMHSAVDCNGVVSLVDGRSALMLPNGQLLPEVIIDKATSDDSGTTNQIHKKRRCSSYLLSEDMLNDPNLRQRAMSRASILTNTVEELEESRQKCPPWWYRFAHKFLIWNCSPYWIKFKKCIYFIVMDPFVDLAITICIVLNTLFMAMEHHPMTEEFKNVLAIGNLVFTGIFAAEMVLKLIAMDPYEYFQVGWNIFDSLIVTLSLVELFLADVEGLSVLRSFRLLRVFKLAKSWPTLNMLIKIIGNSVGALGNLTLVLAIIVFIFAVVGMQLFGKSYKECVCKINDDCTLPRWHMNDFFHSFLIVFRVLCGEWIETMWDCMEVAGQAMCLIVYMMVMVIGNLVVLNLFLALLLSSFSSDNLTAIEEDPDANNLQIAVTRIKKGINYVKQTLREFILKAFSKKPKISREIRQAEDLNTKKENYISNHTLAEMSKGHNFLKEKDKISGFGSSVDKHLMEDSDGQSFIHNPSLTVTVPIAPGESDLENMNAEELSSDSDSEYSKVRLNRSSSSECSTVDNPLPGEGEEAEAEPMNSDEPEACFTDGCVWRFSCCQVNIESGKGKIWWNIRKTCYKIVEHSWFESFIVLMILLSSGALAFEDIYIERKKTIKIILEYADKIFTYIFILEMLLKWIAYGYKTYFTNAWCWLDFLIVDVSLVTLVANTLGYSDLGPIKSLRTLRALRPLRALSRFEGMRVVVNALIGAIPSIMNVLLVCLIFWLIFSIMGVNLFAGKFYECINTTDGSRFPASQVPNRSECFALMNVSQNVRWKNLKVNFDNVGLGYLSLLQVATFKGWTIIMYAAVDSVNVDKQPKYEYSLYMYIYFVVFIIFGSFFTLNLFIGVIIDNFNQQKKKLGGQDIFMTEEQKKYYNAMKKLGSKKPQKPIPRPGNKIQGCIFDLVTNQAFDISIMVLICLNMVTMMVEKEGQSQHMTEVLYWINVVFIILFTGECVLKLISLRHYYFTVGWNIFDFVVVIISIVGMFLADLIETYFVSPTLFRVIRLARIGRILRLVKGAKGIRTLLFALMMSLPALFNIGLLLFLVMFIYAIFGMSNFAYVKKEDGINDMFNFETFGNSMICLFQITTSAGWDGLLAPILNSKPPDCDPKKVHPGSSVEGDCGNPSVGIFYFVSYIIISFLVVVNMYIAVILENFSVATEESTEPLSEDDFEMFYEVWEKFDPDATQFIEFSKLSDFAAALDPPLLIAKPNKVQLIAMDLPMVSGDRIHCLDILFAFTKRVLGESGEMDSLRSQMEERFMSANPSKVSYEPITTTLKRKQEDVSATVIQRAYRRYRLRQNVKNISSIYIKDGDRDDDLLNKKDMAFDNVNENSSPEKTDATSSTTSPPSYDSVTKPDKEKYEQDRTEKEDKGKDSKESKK
Protocol: (§1) Biological assays were performed on Chinese hamster ovary (CHO) cells that express human sodium channels Nav 1.8 or Nav 1.7 in a stable manner.
(§2) The experimental protocol voltage-clamp using the whole cell configuration was established on the automated ScreenPatch® 384P platform (SP384PE, Nanion Technologies, Livingston, NJ) and the results were recorded with a Nanion 384-well Patch Clamp chip (NPC) (Nanion Technologies, Livingston, NJ).
(§3) Formula I compounds were diluted in eight concentrations in the extracellular solution composed of saline solution, buffered with HEPES (mM): NaCl, 137; KCl, 4; CaCl2, 3,8; MgCl2, 1; HEPES, 10; Glucose, 10; pH 7.4. The […], 50; CsF, 90; MgCl2, 5; EGTA, 5; HEPES, 10; pH 7.2. The duration of exposure of each compound with cells expressing Nav 1.7 or Nav 1.8 was at least five minutes and the assays were performed at room temperature.
(§4) The measurements of the sodium currents of Nav 1.8 and Nav 1.7 were obtained using the voltage protocol described below.
(§5) A holding voltage of -100 mV was established followed by an inactivation voltage step at -40 mV for 8 seconds, followed by a step of -100 mV for 20 ms, followed by a 20 ms step for 10 mV for Nav 1.8 or 0 mV for Nav 1.7 (TP1A) before returning to the holding voltage of -100 mV.
(§6) The protocol was repeated at a frequency of 0.05 Hz and the amplitude of the current was quantified throughout the recording of the TP1A phase. The variation in the amplitude of the peak current was evaluated according to the formula described below, after exposing the cells expressing the channels to each concentration of the different compounds: % Block = (1−(ITP1A,molecule/ITP1A,basal)×100%, [formula] wherein ITP1A,basal and ITP1A,molecule represent the peaks of sodium current input into TP1A before exposure to the compound and in the presence of the compound, respectively.
(§7) Data were obtained by nonlinear regression (nonlinear least squares) with XLfit for Excel (Microsoft, Redmond, WA).
(§8) The compounds were tested in at least one assay to obtain the value of CI50. For compounds that were tested in two or more assays, the results are described as the means of the CI50 values.

[2] = molecular target: T2, human sodium channels Nav 1.8 (Homo sapiens, UniProt Q9Y5Y9); experiment: Automated whole-cell voltage-clamp (ScreenPatch 384P) sodium current block, Nav 1.8; assay type: cell-based; details: CHO cells stably expressing human Nav 1.8; inactivation step -40 mV 8 s, test step 10 mV (TP1A); eight concentrations; exposure at least five minutes; room temperature; read-out: Nav1.8 IC50
T2 construct: expressed in transfected cells
T2 sequence (Q9Y5Y9 whole entry): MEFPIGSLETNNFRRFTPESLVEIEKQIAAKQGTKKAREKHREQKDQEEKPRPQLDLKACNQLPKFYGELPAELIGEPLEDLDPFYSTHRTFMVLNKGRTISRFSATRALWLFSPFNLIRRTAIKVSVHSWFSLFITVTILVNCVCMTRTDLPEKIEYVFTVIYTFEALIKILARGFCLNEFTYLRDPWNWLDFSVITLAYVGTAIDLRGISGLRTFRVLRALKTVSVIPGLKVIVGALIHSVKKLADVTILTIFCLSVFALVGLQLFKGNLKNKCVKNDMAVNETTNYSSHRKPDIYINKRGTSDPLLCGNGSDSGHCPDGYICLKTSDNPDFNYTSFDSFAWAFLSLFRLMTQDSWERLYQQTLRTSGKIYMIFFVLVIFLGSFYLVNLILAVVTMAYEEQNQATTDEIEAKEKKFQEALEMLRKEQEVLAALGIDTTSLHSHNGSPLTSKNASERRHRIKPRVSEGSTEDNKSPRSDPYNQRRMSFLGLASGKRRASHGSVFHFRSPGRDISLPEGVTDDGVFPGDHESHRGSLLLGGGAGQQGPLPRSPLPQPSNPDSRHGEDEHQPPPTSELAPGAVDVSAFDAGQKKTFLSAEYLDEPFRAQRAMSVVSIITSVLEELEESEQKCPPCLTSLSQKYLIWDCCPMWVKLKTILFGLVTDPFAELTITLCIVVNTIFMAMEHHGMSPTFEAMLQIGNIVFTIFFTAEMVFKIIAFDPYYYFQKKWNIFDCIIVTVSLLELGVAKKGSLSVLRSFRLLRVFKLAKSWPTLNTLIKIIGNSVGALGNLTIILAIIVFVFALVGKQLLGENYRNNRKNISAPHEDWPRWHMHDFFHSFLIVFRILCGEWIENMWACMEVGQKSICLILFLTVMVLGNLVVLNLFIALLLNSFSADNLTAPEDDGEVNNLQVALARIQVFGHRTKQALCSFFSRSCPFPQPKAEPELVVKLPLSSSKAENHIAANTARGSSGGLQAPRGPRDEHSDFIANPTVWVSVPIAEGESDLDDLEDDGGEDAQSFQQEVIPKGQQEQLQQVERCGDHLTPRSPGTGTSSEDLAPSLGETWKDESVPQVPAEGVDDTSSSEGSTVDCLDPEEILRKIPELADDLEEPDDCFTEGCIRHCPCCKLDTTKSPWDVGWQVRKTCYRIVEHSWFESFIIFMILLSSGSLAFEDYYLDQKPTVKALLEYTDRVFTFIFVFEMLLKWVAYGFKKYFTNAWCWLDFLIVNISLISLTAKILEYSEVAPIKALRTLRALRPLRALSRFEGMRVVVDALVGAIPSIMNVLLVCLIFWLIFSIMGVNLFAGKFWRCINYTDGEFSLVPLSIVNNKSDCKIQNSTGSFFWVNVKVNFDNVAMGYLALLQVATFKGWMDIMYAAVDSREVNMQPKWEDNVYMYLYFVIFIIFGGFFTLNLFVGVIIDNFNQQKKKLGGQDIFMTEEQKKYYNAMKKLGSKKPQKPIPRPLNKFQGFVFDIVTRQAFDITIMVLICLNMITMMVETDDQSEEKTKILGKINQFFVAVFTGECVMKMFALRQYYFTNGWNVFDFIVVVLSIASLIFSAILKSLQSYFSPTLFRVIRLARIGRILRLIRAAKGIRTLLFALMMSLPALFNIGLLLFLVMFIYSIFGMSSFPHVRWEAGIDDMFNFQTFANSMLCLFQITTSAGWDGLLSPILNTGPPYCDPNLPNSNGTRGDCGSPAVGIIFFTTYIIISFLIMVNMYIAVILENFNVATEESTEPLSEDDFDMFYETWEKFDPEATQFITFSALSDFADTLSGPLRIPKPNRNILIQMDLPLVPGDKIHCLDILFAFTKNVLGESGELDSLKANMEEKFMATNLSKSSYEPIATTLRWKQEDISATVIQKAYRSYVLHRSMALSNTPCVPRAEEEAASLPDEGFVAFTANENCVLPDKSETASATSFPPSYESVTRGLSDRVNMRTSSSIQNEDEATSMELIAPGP
Protocol: as §1, §2, §3, §4, §5, §6, §7, §8

Structure (SMILES)	pIC50 [1]	pIC50 [2]
CCOc1ccc(-c2cncc(C(=O)N/N=C/c3cc(OC4CCC4)cnc3F)n2)cn1 [Compound 36, (E)-N'-((5-cyclobutoxy-2-fluoropyridine-3-yl)methylene)-6-(6-ethoxypyridine-3-yl)pyrazine-2-carbohydrazide]	< 6.00	> 6.30
CCOc1ccc(-c2cncc(C(=O)N/N=C/c3cccc(O)n3)n2)cn1 [Compound 40, (E)-6-(6-ethoxypyridine-3-yl)-N'-((6-hydroxypyridine-2-yl)methylene)pyrazine-2-carbohydrazide]	< 6.00	< 6.00
CCOc1ccc(-c2cncc(C(=O)N/N=C/c3cncn3C(C)C)n2)cn1 [Compound 53, (E)-6-(6-ethoxypyridine-3-yl)-N'-((1-isopropyl-1H-imidazole-5-yl)methylene)pyrazine-2-carbohydrazide]	< 6.00	< 6.00
CCOc1ccc(-c2cncc(C(=O)N/N=C/c3ccnn3C(C)C)n2)cn1 [Compound 54, (E)-6-(6-ethoxypyridine-3-yl)-N'-((1-isopropyl-1H-pyrazole-5-yl)methylene)pyrazine-2-carbohydrazide]	< 6.00	> 6.30
CCOc1ccc(-c2cncc(C(=O)N/N=C/c3occc3OC)n2)cn1 [Compound 55, (E)-6-(6-ethoxypyridine-3-yl)-N'-((3-methoxyfuran-2-yl)methylene)pyrazine-2-carbohydrazide]	< 6.00	< 6.00
CCOc1ccc(-c2cncc(C(=O)N/N=C/c3[nH]ccc3C)n2)cn1 [Compound 56, (E)-6-(6-ethoxypyridine-3-yl)-N'-((3-methyl-1H-pyrrole-2-yl)methylene)pyrazine-2-carbohydrazide]	< 6.00	6.00 to 6.30
CCOc1ccc(-c2cncc(C(=O)N/N=C/c3c[nH]nc3C)n2)cn1 [Compound 57, (E)-6-(6-ethoxypyridine-3-yl)-N'-((3-methyl-1H-pyrazole-4-yl)methylene)pyrazine-2-carbohydrazide]	< 6.00	< 6.00
CCOc1ccc(-c2cncc(C(=O)N/N=C/c3cncn3C)n2)cn1 [Compound 58, (E)-6-(6-ethoxypyridine-3-yl)-N'-((1-methyl-1H-imidazole-5-yl)methylene)pyrazine-2-carbohydrazide]	< 6.00	< 6.00
CCOc1ccc(-c2cncc(C(=O)N/N=C/c3[nH]ccc3C#N)n2)cn1 [Compound 59, (E)-N'-((3-cyano-1H-pyrrole-2-yl)methylene)-6-(6-ethoxypyridine-3-yl)pyrazine-2-carbohydrazide]	< 6.00	< 6.00
CCOc1ccc(-c2cncc(C(=O)N/N=C/c3nccn3CC)n2)cn1 [Compound 60, (E)-6-(6-ethoxypyridine-3-yl)-N'-((1-ethyl-1H-imidazole-2-yl)methylene)pyrazine-2-carbohydrazide]	< 6.00	6.00 to 6.30
CCOc1ccc(-c2cncc(C(=O)N/N=C/c3ocnc3C)n2)cn1 [Compound 61, (E)-6-(6-ethoxypyridine-3-yl)-N'-((4-methyloxazole-5-yl)methylene)pyrazine-2-carbohydrazide]	< 6.00	< 6.00
CCOc1ccc(-c2cncc(C(=O)N/N=C/c3ncoc3C)n2)cn1 [Compound 62, (E)-6-(6-ethoxypyridine-3-yl)-N'-((5-methyloxazole-4-yl)methylene)pyrazine-2-carbohydrazide]	< 6.00	6.00 to 6.30
CCOc1ccc(-c2nc(C(=O)N/N=C/c3cc(OC)ccc3F)cnc2N)cn1 [Compound 63, (E)-5-amino-6-(6-ethoxypyridine-3-yl)-N'-(2-fluoro-5-methoxybenzylidene) pyrazine-2-carbohydrazide]	< 6.00	6.00 to 6.30
CCOc1ccc(-c2cnc(N)c(C(=O)N/N=C/c3cc(OC)ccc3F)n2)cn1 [Compound 64, (E)-3-amino-6-(6-ethoxypyridine-3-yl)-N'-(2-fluoro-5-methoxybenzylidene) pyrazine-2-carbohydrazide]	< 6.00	6.00 to 6.30
CCOc1ccc(-c2cnc(O)c(C(=O)N/N=C/c3cc(OC)cnc3F)n2)cn1 [Compound 65, (E)-6-(6-ethoxypyridine-3-yl)-N'-((2-fluoro-5-methoxypyridine-3-yl)methylene)-3-hydroxypyrazine-2-carbohydrazide]	< 6.00	< 6.00

Now from value to compound:

pIC50 [1]	pIC50 [2]	Structure (SMILES)
< 6.00	< 6.00	CCOc1ccc(-c2cncc(C(=O)N/N=C/c3cc(OC4CNC4)cnc3F)n2)cn1 [Compound 34, (E)-N'-((5-(azetidin-3-yloxy)-2-fluoropyridine-3-yl)methylene)-6-(6-ethoxypyridine-3-yl) pyrazine-2-carbohydrazide]
< 6.00	< 6.00	CCOc1ccc(-c2cncc(C(=O)N/N=C/c3cc(N4CC(O)C4)ccc3F)n2)cn1 [Compound 37, (E)-6-(6-ethoxypyridine-3-yl)-N'-(2-fluoro-5-(3-hydroxyazetidine-1-yl)benzylidene) pyrazine-2-carbohydrazide]
< 6.00	> 6.30	CCOc1ccc(-c2cncc(C(=O)N/N=C/c3cc(N4CCC4)ccc3F)n2)cn1 [Compound 38, (E)-N'-(5-(azetidin-1-yl)-2-fluorobenzylidene)-6-(6-ethoxypyridine-3-yl)pyrazine-2-carbohydrazide]
< 6.00	< 6.00	CCOc1ccc(-c2cncc(C(=O)N/N=C/c3cc(OC4CN(C)C4)ccc3F)n2)cn1 [Compound 39, (E)-6-(6-ethoxypyridine-3-yl)-N'-(2-fluoro-5-((1-methylazetidine-3-yl)oxy)benzylidene) pyrazine-2-carbohydrazide]
< 6.00	< 6.00	CCOc1ccc(-c2cncc(C(=O)N/N=C/c3cc(OC)cnc3O)n2)cn1 [Compound 42, (E)-6-(6-ethoxypyridine-3-yl)-N'-((2-hydroxy-5-methoxypyridine-3-yl)methylene) pyrazine-2-carbohydrazide]
< 6.00	< 6.00	CCOc1ccc(-c2cncc(C(=O)N/N=C/c3cc(O)nc(OC)c3)n2)cn1 [Compound 43, (E)-6-(6-ethoxypyridine-3-yl)-N'-((2-hydroxy-6-methoxypyridine-4-yl)methylene) pyrazine-2-carbohydrazide]
< 6.00	< 6.00	CCOc1ccc(-c2cncc(C(=O)N/N=C/c3cc(OC)cc(O)c3F)n2)cn1 [Compound 44, (E)-6-(6-ethoxypyridine-3-yl)-N'-(2-fluoro-3-hydroxy-5-methoxybenzylidene) pyrazine-2-carbohydrazide]
< 6.00	> 6.30	CCOc1ccc(-c2cncc(C(=O)N/N=C/c3cccn3C)n2)cn1 [Compound 50, (E)-6-(6-ethoxypyridine-3-yl)-N'-((1-methyl-1H-pyrrole-2-yl)methylene)pyrazine-2-carbohydrazide]
< 6.00	< 6.00	CCOc1ccc(-c2cncc(C(=O)N/N=C/c3ccnn3C)n2)cn1 [Compound 51, (E)-6-(6-ethoxypyridine-3-yl)-N'-((1-methyl-1H-pyrazole-5-yl)methylene)pyrazine-2-carbohydrazide]
< 6.00	> 6.30	CCOc1ccc(-c2cncc(C(=O)N/N=C/c3ccnn3CC)n2)cn1 [Compound 52, (E)-6-(6-ethoxypyridine-3-yl)-N'-((1-ethyl-1H-pyrazole-5-yl)methylene)pyrazine-2-carbohydrazide]
